Experimental findings from patent US6073962A (priority 1994, dated 2000) are described below.

For the data set, the system named is mouse. Particulars: in vivo, po.

Where only a bound is given, the exact number is not on record here.

On to `NN.NN.O=[N+]([O-])[O-].O=[N+]([O-])[O-].[Zn+2]` [Ex. 1, Zn.2(N2 H4).2(NO3)], for which the “Death rate of 30 mg adm.” value is 0/10, the “Death rate of 300 mg adm.” value was 0/10, the “Death rate of 2000 mg adm.” value is listed as 10/10 and the LD50 level is given as more than 300 mg/kg.

Regarding `NNC(=O)NN.NNC(=O)NN.NNC(=O)NN.O=[N+]([O-])[O-].O=[N+]([O-])[O-].[Zn+2]` [Ex. 25, Zn.3(CDH).2(NO3)], the “Death rate of 30 mg adm.” value was 0/10, the “Death rate of 300 mg adm.” value is reported as 3/10, the “Death rate of 2000 mg adm.” value is listed as 10/10 and the LD50 level was more than 300.
